# Reference: patent publication US20250296934A1, “AZEPINOINDOLES AND METHODS OF PREPARATION THEREOF” (priority 2022, published 2025)
# Where two headings read alike, the source gives them in different places.
# How the values were obtained:
# 5-HT1D = 5-HT1D (Homo sapiens, UniProt P28221); assay: 5-HT receptor activity (Table 3), 5-HT1D; format: cell-based
# 5-HT1E = 5-HT1E (Homo sapiens, UniProt P28566); assay: 5-HT receptor activity (Table 3), 5-HT1E; format: cell-based
# 5-HT2B [1] = molecular target: T1, 5-HT2B (Homo sapiens, UniProt P41595); assay: 5-HT receptor activity (Table 3), 5-HT2B; format: cell-based
# Target sequence in this assay (P41595 whole entry, species assumed): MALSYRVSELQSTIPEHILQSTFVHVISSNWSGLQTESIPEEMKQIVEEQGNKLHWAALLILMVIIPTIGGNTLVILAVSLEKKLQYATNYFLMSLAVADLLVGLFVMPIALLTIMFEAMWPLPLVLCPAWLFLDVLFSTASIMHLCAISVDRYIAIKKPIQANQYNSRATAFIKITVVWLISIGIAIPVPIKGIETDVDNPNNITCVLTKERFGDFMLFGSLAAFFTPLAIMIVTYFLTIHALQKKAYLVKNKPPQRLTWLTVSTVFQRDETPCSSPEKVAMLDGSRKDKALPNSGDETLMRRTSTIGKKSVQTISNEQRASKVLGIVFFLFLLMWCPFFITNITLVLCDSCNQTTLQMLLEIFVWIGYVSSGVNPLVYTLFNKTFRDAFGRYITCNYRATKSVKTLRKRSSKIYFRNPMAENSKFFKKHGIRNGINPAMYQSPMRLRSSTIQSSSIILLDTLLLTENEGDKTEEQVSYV
# 5-HT4 = 5-HT4 (Homo sapiens, UniProt Q13639); assay: 5-HT receptor activity (Table 3), 5-HT4; format: cell-based
# 5-HT6 = 5-HT6 (Homo sapiens, UniProt P50406); assay: 5-HT receptor activity (Table 3), 5-HT6; format: cell-based
# 5-HT7 = 5-HT7 (Homo sapiens, UniProt P34969); assay: 5-HT receptor activity (Table 3), 5-HT7; format: cell-based
# [2] = In vitro hepatocyte clearance, human; format: in vitro ADME; details: Human hepatocytes
# Protocol: (§1) Additional experimentation was performed on compounds 1, W5, and A93. Table 6a, 6b and 6c summarize, among other things, the anticipated hepatic clearance of compounds 1, W5 and A93 respectively, in various species, as specified in Table 6a, 6b and 6c and as determined by calculating the in vitro hepatocyte clearance over time and scaling such rate with such species' hepatocyte count and the anticipated liver blood flow rate in such species.
# hepatocyte [3] = assay: In vitro hepatocyte clearance, human; format: in vitro ADME; details: Human
# Protocol: as §1
# [4] = In vitro hepatocyte clearance, monkey; format: in vitro ADME; details: Monkey hepatocytes
# Protocol: as §1
# [5] = In vitro hepatocyte clearance, rat; format: in vitro ADME
# Protocol: as §1
# hepatocyte [6] = assay: In vitro hepatocyte clearance, rat; format: in vitro ADME; details: Rat
# Protocol: as §1
# Plasma PK in dog = format: in vivo
# Excerpt: Tables 7a and 7b summarize, among other things, the observed plasma PK properties in animals, for Compound 1: […]
# mice = assay: Head Twitch Response (HTR) in mice; format: in vivo; details: Mus musculus, 1 h, measured over a 60 minute interval
# Protocol: Head Twitch Response (HTR) was assessed using a head-mounted neodymium magnet and a magnetometer detection coil, as described in Halberstadt et al., Psychopharmacology (Berl.), 2013, 227 (4): 727-739. Table 8 below summarizes the ED50 in head twitch (as measured over a 60 minute interval) in mice as a result of Compound 1 as compared to psilocybin.
# 5-HT2B [7] = molecular target: T1, 5-HT2B; assay: 5-HT2B Gq dissociation BRET functional assay; format: cell-based; design: expressed in transfected cells; host or cells: HEK293T
# Target sequence in this assay (P41595 whole entry): as the sequence (P41595 whole entry, species assumed) above
# 5-HT2C = molecular target: T2, 5-HT2C (Homo sapiens, UniProt P28335); assay: cell-based; format: cell-based; design: expressed in transfected cells; host or cells: HEK293T
# T2 sequence (P28335 33-458): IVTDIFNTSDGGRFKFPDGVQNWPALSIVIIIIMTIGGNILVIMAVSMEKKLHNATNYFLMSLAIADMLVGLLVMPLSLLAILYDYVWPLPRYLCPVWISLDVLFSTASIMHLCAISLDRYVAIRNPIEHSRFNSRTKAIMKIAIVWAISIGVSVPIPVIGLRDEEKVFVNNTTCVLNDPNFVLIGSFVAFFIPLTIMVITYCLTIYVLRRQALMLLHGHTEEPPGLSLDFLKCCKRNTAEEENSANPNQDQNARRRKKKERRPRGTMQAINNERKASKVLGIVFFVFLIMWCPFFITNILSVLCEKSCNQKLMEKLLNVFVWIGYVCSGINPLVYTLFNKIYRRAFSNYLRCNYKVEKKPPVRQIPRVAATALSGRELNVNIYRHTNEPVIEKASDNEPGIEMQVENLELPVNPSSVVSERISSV
# [8] = normalized to % 5-HT stimulation
# Sequence of 5-HT1D (P28221 whole entry, species assumed): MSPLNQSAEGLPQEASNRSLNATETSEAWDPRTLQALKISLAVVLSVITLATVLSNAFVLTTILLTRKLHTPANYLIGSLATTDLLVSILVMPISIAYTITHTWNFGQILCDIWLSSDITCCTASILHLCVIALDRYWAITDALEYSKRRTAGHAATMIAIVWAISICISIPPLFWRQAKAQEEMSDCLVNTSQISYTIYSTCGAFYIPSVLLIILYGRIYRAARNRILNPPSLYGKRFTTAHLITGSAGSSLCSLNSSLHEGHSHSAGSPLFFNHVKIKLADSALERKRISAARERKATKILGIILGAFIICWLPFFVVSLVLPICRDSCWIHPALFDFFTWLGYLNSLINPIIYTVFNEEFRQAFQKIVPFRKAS
# Sequence of 5-HT1E (P28566 whole entry, species assumed): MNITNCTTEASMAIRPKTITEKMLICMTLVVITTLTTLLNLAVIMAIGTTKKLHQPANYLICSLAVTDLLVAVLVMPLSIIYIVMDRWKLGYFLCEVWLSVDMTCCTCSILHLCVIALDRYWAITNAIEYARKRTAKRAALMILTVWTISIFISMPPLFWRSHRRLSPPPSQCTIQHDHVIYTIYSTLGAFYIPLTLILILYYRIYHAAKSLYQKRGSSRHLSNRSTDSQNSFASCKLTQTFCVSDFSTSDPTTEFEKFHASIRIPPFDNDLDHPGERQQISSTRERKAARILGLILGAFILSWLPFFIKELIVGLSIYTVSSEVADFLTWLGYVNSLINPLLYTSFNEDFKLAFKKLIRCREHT
# Sequence of 5-HT6 (P50406 whole entry, species assumed): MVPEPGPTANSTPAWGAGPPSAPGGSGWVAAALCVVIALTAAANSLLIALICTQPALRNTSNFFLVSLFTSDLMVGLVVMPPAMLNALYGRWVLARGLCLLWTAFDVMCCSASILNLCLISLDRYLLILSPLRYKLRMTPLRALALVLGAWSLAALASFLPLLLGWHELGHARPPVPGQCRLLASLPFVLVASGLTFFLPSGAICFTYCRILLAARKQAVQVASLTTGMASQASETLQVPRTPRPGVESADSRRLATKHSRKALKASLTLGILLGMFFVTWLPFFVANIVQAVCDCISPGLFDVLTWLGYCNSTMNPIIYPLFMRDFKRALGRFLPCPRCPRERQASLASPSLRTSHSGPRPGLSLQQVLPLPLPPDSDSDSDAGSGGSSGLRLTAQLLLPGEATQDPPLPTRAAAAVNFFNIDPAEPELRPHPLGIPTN
# Sequence of 5-HT4 (Q13639 whole entry, species assumed): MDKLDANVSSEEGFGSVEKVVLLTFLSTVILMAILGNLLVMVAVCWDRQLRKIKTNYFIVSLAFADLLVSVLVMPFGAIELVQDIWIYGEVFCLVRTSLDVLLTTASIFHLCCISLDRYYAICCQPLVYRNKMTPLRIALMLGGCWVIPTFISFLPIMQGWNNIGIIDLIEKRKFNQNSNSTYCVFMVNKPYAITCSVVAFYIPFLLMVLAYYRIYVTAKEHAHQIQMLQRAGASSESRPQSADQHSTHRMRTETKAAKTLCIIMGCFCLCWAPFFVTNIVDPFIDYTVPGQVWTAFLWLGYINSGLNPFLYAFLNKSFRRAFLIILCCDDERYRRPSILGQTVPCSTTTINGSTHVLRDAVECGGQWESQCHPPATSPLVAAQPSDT
# Sequence of 5-HT7 (P34969 whole entry, species assumed): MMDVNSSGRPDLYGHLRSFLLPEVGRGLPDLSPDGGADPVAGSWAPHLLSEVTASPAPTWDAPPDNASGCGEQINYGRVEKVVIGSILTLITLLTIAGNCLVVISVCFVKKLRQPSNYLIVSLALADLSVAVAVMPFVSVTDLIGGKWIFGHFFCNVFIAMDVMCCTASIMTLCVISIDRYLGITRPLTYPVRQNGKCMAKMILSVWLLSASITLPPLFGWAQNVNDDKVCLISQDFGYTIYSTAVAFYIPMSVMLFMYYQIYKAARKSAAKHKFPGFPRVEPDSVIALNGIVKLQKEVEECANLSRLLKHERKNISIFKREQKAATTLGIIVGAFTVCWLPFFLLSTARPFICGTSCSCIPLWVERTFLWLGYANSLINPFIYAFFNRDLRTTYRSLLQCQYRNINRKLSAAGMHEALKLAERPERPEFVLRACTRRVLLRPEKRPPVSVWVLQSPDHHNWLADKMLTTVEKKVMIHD
smiles,measurement,setting,value
"Cc1ccc(O)c2c3c([nH]c12)CCNCC3 [Cpd #1 (Pharm-136), 7-Methyl-1,2,3,4,5,6-hexahydroazepino[4,5-b]indol-10-ol]",EC50,5-HT1D,0.326 µM
same,Eff,5-HT1D,72%
same,EC50,5-HT1E,0.966 µM
same,Eff,5-HT1E,94%
same,EC50,5-HT2B [1],0.0042 µM
same,Eff,"5-HT2B [1]; 5-HT2B, Table 3",50%
same,EC50,5-HT4,Not active
same,EC50,5-HT6,0.0532 µM
same,Eff,5-HT6,55%
same,EC50,5-HT7,Not active
same,hepatocyte CLint,[2],< 2.71 µL/min/1e6 cells
same,half-life,[2]; read-out: In vitro T1/2,> 8.53 h
same,CLint scaled,[2]; read-out: Scale-up Clint,< 0.413 L/h/kg
same,Hepatic Extraction Ratio (E),hepatocyte [3],<0.25
same,Predicted hepatic CL,hepatocyte [3],<0.31 L/h/kg
same,hepatocyte CLint,[4],< 2.71 µL/min/1e6 cells
same,half-life,[4]; read-out: In vitro T1/2,> 8.53 h
same,CLint scaled,[4]; read-out: Scale-up Clint,< 0.585 L/h/kg
same,hepatocyte CLint,[5]; Rat hepatocytes,5.43 µL/min/1e6 cells
same,half-life,"[5]; Rat hepatocytes, read-out: In vitro T1/2",4.26 h
same,CLint scaled,"[5]; rat, hepatocytes, read-out: Scale-up Clint",1.53 L/h/kg
same,Hepatic Extraction Ratio (E),hepatocyte [6],0.32
same,Predicted hepatic CL,hepatocyte [6],1.045 L/h/kg
same,AUC(0-t),"Plasma PK in dog; IV, 2 mg/kg",1.2 µg·h/mL
same,half-life,"Plasma PK in dog; IV, 2 mg/kg",2.84 h
same,clearance,"Plasma PK in dog; IV, 2 mg/kg, read-out: Cltot (converted)",1.48 L/h/kg
same,Vd,"Plasma PK in dog; IV, 2 mg/kg, read-out: Vss",5.15 L/kg
same,AUC(0-t),"Plasma PK in dog; PO, 10 mg/kg",5.46 µg·h/mL
same,Vz_F,"Plasma PK in dog; PO, 10 mg/kg",7.648 L/kg
same,half-life,"Plasma PK in dog; PO, 10 mg/kg",3.21 h
same,ED50,mice,3.6 mg/kg
same,Count (n. of wells),"TA98; TA98 + S9, 1.0E−04M",0 n. of wells
same,Significance,"TA98; TA98 + S9, 1.0E−04M",Negative
same,Count (n. of wells),"TA98; TA98 + S9, 1.0E−05M",3 n. of wells
same,Significance,"TA98; TA98 + S9, 1.0E−05M",Negative
same,Count (n. of wells),"TA98; TA98 + S9, 5.0E−05M",0 n. of wells
same,Significance,"TA98; TA98 + S9, 5.0E−05M",Negative
same,Count (n. of wells),"TA98; TA98 + S9, 5.0E−06M",9 n. of wells
same,Significance,"TA98; TA98 + S9, 5.0E−06M",Weak positive
same,Count (n. of wells),"TA98; TA98 − S9, 1.0E−04M",0 n. of wells
same,Significance,"TA98; TA98 − S9, 1.0E−04M",Negative
same,Count (n. of wells),"TA98; TA98 − S9, 1.0E−05M",0 n. of wells
same,Significance,"TA98; TA98 − S9, 1.0E−05M",Negative
same,Count (n. of wells),"TA98; TA98 − S9, 5.0E−05M",0 n. of wells
same,Significance,"TA98; TA98 − S9, 5.0E−05M",Negative
same,Count (n. of wells),"TA98; TA98 − S9, 5.0E−06M",1 n. of wells
same,Significance,"TA98; TA98 − S9, 5.0E−06M",Negative
same,Count (n. of wells),"TA1535; TA1535 + S9, 1.0E−04M",0 n. of wells
same,Significance,"TA1535; TA1535 + S9, 1.0E−04M",Negative
same,Count (n. of wells),"TA1535; TA1535 + S9, 1.0E−05M",0 n. of wells
same,Significance,"TA1535; TA1535 + S9, 1.0E−05M",Negative
same,Count (n. of wells),"TA1535; TA1535 + S9, 5.0E−05M",0 n. of wells
same,Significance,"TA1535; TA1535 + S9, 5.0E−05M",Negative
same,Count (n. of wells),"TA1535; TA1535 + S9, 5.0E−06M",0 n. of wells
same,Significance,"TA1535; TA1535 + S9, 5.0E−06M",Negative
same,Count (n. of wells),"TA1535; TA1535 − S9, 1.0E−04M",0 n. of wells
same,Significance,"TA1535; TA1535 − S9, 1.0E−04M",Negative
same,Count (n. of wells),"TA1535; TA1535 − S9, 1.0E−05M",0 n. of wells
same,Significance,"TA1535; TA1535 − S9, 1.0E−05M",Negative
same,Count (n. of wells),"TA1535; TA1535 − S9, 5.0E−05M",0 n. of wells
same,Significance,"TA1535; TA1535 − S9, 5.0E−05M",Negative
same,Count (n. of wells),"TA1535; TA1535 − S9, 5.0E−06M",0 n. of wells
same,Significance,"TA1535; TA1535 − S9, 5.0E−06M",Negative
same,EC50,5-HT2B [7],0.0035 µM
same,5-HT2B BRET Eff,5-HT2B [7]; [8],52%
same,EC50,"5-HT2C; Gq dissociation BRET, HEK293T",0.0005 µM
same,5-HT2C BRET Eff,5-HT2C; [8],101%
